In patent US20240140931A1, “TRICYCLIC COMPOUNDS AND USES THEREOF” (HUTCHMED LIMITED, priority 2021, published 2024):

How the values were obtained:
[1] = system: pERK1/2 (Thr202/Tyr204) in Miapaca2 cells; test: Assay of intracellular pERK1/2 (Thr202/Tyr204) phosphorylation; format: cell-based; details: pERK1/2 (Thr202/Tyr204) HTRF
Summary of the method: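 Miapaca2 cells treated 2 h at 37 °C with compound (3-fold series; final DMSO 0.5%), then lysed 1 h. pERK1/2 (Thr202/Tyr204) detected by HTRF (665/615 nm ratio) after 2 h at 25 °C; normalized to cell-free lysis buffer and DMSO-treated cell controls; IC50 by four-parameter fit.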

Miapaca2 3D spheroids = test: Assay of cell proliferation on Miapaca2 3D spheroids; format: cell-based; details: CellTiter-Glo 3D, 5 days treatment
Procedure: Example 4 Assay of Cell Proliferation on Miapaca2 3D Spheroids
1. Reagents and Materials • CellTiter-Glo® 3D Cell Viability Assay Kit: Promega, Cat #G9683; • CellCarrier Spheroid ULA 96-well plate: Corning, Cat #4515; • Instrument: Envision, Perkinelmer; • Cell line: Miapaca2, ATCC, Cat #CRL-1420.
2. Preparation of Reaction Solutions • The test compound was dissolved in DMSO and diluted with DMSO to 3000.0 μM, and the compound was further 3-fold diluted with DMSO to: 1000.0, 333.3, 111.1, 37.0, 12.3, 4.1, and 1.4 μM. Then 2 μL of the compound at different dilution concentrations was added to 198 μL of a 1640 medium to prepare a 10× test compound, wherein DMSO was at the concentration of 1% (DMSO was at the final concentration of 0.1%).
3. Experimental Methods • Day0: Digest cells and count cell numbers. Miapaca2 cells were inoculated into a spheroid ULA 96-well plate at a density of 300 cells/well at 100 μL/well and cultured in a cell incubator at 5% CO2 and 37° C. • Day2: The cell spheroids formed at day2. Add 10 μL of 10× test compounds to the 96-well plate. To the cell positive control well was added 10 μL of 1% DMSO 1640 medium. Incubate the cell spheroids in a cell incubator at 5% CO2 and 37° C. for additional 5 days. • Cell viability assay: Add 50 μL of CellTiter-Glo reagent to each well, place the plate in a microplate shaker, and lysis under shaking at 900 rpm at room temperature for 5 minutes. Then incubate the plate at room temperature in the dark for 30 minutes. • The luminescene of each well was detected on Envision2104.
Cell Survial %=(Lum(d7 treatment)−Lum(d2 cell))/(Lum(d7 cell)−Lum(d2 cell))×100
Wherein: • Lum(d7 treatment) refers to the luminescene of the test compound treated cells on day7; • Lum(d2 cell) refers to the luminescene of the 0.1% DMSO treated Miapaca2 cells on day2; • Lum(d7 cell) refers to the luminescene of the 0.1% DMSO treated Miapaca2 cells on day7. • IC50 values were calculated following formula 205: y=A+((B−A)/(1+((C/X)^D))), by using the XL-Fit 5.0 software.

[2] = molecular target: Human full-length SHP2 recombinant protein (Homo sapiens (Human), UniProt Q06124); test: Assay of full-length SHP2 phosphatase activity; format: biochemical; details: DiFMUP substrate, with activating peptide
Summary of the method: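 Full-length human SHP2 preincubated 30 min at RT with activating peptide and compound (1% DMSO final). DiFMUP substrate added, reaction 60 min at 25 °C in dark. Fluorescence at ex 355/em 460 nm; IC50 from 4-parameter fit against enzyme-free and vehicle controls.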

[3] = Homo sapiens, MIA PaCa-2, 120 h

Row | SMILES | IC50 ([1]; 2 hours) [µM] | IC50 (Miapaca2 3D spheroids) [µM] | IC50 [2] [µM] | IC50 (Miapaca2 3D spheroids; [3]) [µM] | IC50 ([1]; Homo sapiens, MIA PaCa-2, 2 h) [µM]
1 | C#Cc1ccc2c(c1)[C@@H](N)C1(CCN(c3cc(=O)n(-c4ccc(C#N)c(Cl)c4Cl)c(C)n3)CC1)C2 (atropisomer, axis not shown) [Compound 193] | 0.024 | 0.09 | 0.001 | – | –
2 | C#Cc1cc(F)c2c(c1)[C@@H](N)C1(CCN(c3cc(=O)n(-c4cccc(Cl)c4Cl)c(C)n3)CC1)C2 [Compound 135] | – | – | 0.005 | 0.095 | 0.056
3 | COCC#Cc1ccc2c(c1)[C@@H](N)C1(CCN(c3ncc(Sc4ccnc(N)c4Cl)c4nncn34)CC1)C2 [Compound 147] | – | – | 0.003 | 0.048 | 0.01
4 | COCC#Cc1ccc2c(c1)[C@@H](N)C1(CCN(c3ncc(Sc4ccnc(N)c4Cl)c4ncnn34)CC1)C2 [Compound 148] | – | – | 0.004 | 0.047 | 0.013
5 | CCNC(=O)C#Cc1ccc2c(c1)[C@@H](N)C1(CCN(c3cnc(Sc4ccnc(N)c4Cl)cn3)CC1)C2 [Compound 155] | – | – | 0.001 | 0.0009 | 0.002
6 | C#Cc1ccc2c(c1)[C@@H](N)C1(CCN(c3ncc(Sc4ccnc(N)c4Cl)n4nccc34)CC1)C2 [Compound 156] | – | – | 0.006 | 0.031 | 0.01
7 | NC(=O)NCC#Cc1ccc2c(c1)[C@@H](N)C1(CCN(c3cnc(Sc4ccnc(N)c4Cl)c(N)n3)CC1)C2 [Compound 159, (S)-1-(3-(1-amino-1′-(6-amino-5-((2-amino-3-chloropyridin-4-yl)thio)pyrazin-2-yl)-1,3-dihydrospiro[indene-2,4′-piperidin]-6-yl)prop-2-yn-1-yl)urea] | – | – | 0.001 | 0.006 | 0.005
8 | COCC#Cc1cc(F)c2c(c1)[C@@H](N)C1(CCN(c3nc(C)n(-c4cccc(Cl)c4Cl)c(=O)c3C)CC1)C2 [Compound 160] | – | – | 0.013 | 0.041 | 0.056
9 | C#Cc1ccc2c(c1)[C@@H](N)C1(CCN(c3nc(C)n(-c4cccc(Cl)c4Cl)c(=O)c3F)CC1)C2 [Compound 165] | – | – | 0.006 | 0.071 | 0.039
10 | C#Cc1cc(F)c2c(c1)[C@@H](N)C1(CCN(c3nc(C)n(-c4cccc(Cl)c4Cl)c(=O)c3C)CC1)C2 [Compound 168] | – | – | 0.01 | 0.077 | 0.034
11 | COCC#Cc1cc(F)c2c(c1)[C@@H](N)C1(CCN(c3ncc(Sc4ccnc(N)n4)c4nccn34)CC1)C2 [Compound 171] | – | – | 0.006 | 0.039 | 0.038
12 | CNC(=O)C#Cc1ccc2c(c1)[C@@H](N)C1(CCN(c3ncc(Sc4ccnc(N)c4Cl)c4nccn34)CC1)C2 [Compound 172] | – | – | 0.001 | 0.009 | 0.008
13 | CNC(=O)C#Cc1ccc2c(c1)[C@@H](N)C1(CCN(c3nc(C)n(-c4cccc(Cl)c4Cl)c(=O)c3C)CC1)C2 [Compound 174] | – | – | 0.006 | 0.053 | 0.033
14 | COCC#Cc1cc(F)c2c(c1)[C@@H](N)C1(CCN(c3ncc(Sc4ccnc(C)n4)c4nccn34)CC1)C2 [Compound 175] | – | – | 0.014 | 0.1 | 0.122
15 | C#Cc1cc(F)c2c(c1)[C@@H](N)C1(CCN(c3ncc(Sc4ccnc(N)c4Cl)n4nccc34)CC1)C2 [Compound 176] | – | – | 0.038 | 0.097 | 0.041
16 | CNC(=O)C#Cc1ccc2c(c1)[C@@H](N)C1(CCN(c3ncc(Sc4ccnc(N)c4Cl)n4nccc34)CC1)C2 [Compound 177] | – | – | 0.002 | 0.004 | 0.007
17 | C#Cc1ccc2c(c1)[C@@H](N)C1(CCN(c3ncc(Sc4ccnc(C)n4)n4nccc34)CC1)C2 [Compound 178] | – | – | 0.002 | 0.041 | 0.048
18 | C#Cc1ccc2c(c1)[C@@H](N)C1(CCN(c3ncc(Sc4ccnc(N)c4Cl)n4ncnc34)CC1)C2 [Compound 179] | – | – | 0.004 | 0.065 | 0.112

Continued, values first:

Row | IC50 ([1]; 2 hours) [µM] | IC50 (Miapaca2 3D spheroids) [µM] | IC50 [2] [µM] | IC50 (Miapaca2 3D spheroids; [3]) [µM] | IC50 ([1]; Homo sapiens, MIA PaCa-2, 2 h) [µM] | SMILES
19 | 0.013 | 0.008 | 0.001 | – | – | C#Cc1ccc2c(c1)[C@@H](N)C1(CCN(c3cc(=O)n(-c4ccc(F)c(OC)c4Cl)c(C)n3)CC1)C2 (atropisomer, axis not shown) [Compound 161]
20 | 0.014 | – | 0.001 | 0.02 | – | COCC#Cc1ccc2c(c1)[C@@H](N)C1(CCN(c3cc(=O)n(-c4ccc(F)c(OC)c4Cl)c(C)n3)CC1)C2 (atropisomer, axis not shown) [Compound 163]
21 | 0.023 | – | 0.001 | 0.018 | – | CNC(=O)C#Cc1ccc2c(c1)[C@@H](N)C1(CCN(c3cc(=O)n(-c4cccc(OC)c4Cl)c(C)n3)CC1)C2 (atropisomer, axis not shown) [Compound 182]
22 | 0.021 | 0.058 | 0.001 | – | – | C#Cc1ccc2c(c1)[C@@H](N)C1(CCN(c3cc(=O)n(-c4ccc(C#N)c(OC)c4Cl)c(C)n3)CC1)C2 (atropisomer, axis not shown) [Compound 191]
23 | 0.006 | – | 0.001 | 0.018 | – | CNC(=O)C#Cc1ccc2c(c1)[C@@H](N)C1(CCN(c3cc(=O)n(-c4ccc(F)c(OC)c4Cl)c(C)n3)CC1)C2 (atropisomer, axis not shown) [Compound 201]
24 | 0.009 | – | 0.002 | 0.035 | – | CC#Cc1ccc2c(c1)[C@@H](N)C1(CCN(c3cc(=O)n(-c4ccc(F)c(OC)c4Cl)c(C)n3)CC1)C2 (atropisomer, axis not shown) [Compound 207]
25 | 0.019 | 0.038 | 0.001 | – | – | CNC(=O)C#Cc1ccc2c(c1)[C@@H](N)C1(CCN(c3cc(=O)n(-c4ccc(F)c(F)c4Cl)c(C)n3)CC1)C2 (atropisomer, axis not shown) [Compound 209]
26 | 0.049 | – | 0.001 | 0.062 | – | CC#Cc1ccc2c(c1)[C@@H](N)C1(CCN(c3cc(=O)n(-c4ccc(F)c(F)c4Cl)c(C)n3)CC1)C2 (atropisomer, axis not shown) [Compound 217]
27 | 0.015 | – | 0.001 | 0.063 | – | CC#Cc1ccc2c(c1)[C@@H](N)C1(CCN(c3cc(=O)n(-c4ccc(F)c(Cl)c4Cl)c(C)n3)CC1)C2 (atropisomer, axis not shown) [Compound 221]
28 | 0.025 | 0.028 | 0.002 | – | – | C#Cc1ccc2c(c1)[C@@H](N)C1(CCN(c3cc(=O)n(-c4ccc(F)c(OC)c4Cl)c(C)n3)CC1)C2 [Compound 157]
29 | 0.031 | 0.032 | 0.003 | – | – | COCC#Cc1ccc2c(c1)[C@@H](N)C1(CCN(c3cc(=O)n(-c4ccc(F)c(OC)c4Cl)c(C)n3)CC1)C2 [Compound 158]
30 | – | – | 0.006 | 0.11 | 0.038 | COCC#Cc1cc(F)c2c(c1)[C@@H](N)C1(CCN(c3cc(=O)n(-c4cccc(Cl)c4Cl)c(C)n3)CC1)C2 [Compound 166]
31 | – | – | 0.009 | 0.162 | 0.143 | CC#Cc1ccc2c(c1)[C@@H](N)C1(CCN(c3nc(C)n(-c4cccc(Cl)c4Cl)c(=O)c3F)CC1)C2 [Compound 170]
32 | – | – | 0.001 | 0.024 | 0.018 | CNC(=O)C#Cc1ccc2c(c1)[C@@H](N)C1(CCN(c3cc(=O)n(-c4cccc(Cl)c4Cl)c(C)n3)CC1)C2 [Compound 173]
33 | 0.063 | – | – | 0.017 | – | C#Cc1ccc2c(c1)[C@@H](N)C1(CCN(c3cc(=O)n(-c4cccc(C#N)c4Cl)c(C)n3)CC1)C2 [Compound 268]
